Patent US10450301B2, “Apoptosis signal-regulating kinase 1 inhibitors and methods of use thereof” (ENANTA PHARMACEUTICALS, INC., priority 2017, dated 2019)

Target: ASK1 (Homo sapiens (Human), UniProt Q99683)
Experiment: HTRF KinEASE Assay (TR-FRET, STK3 peptide substrate), inhibition of ASK1
Type: biochemical
Conditions: 5 nM ASK1 kinase, 1 μM STK3 peptide substrate, 100 μM ATP, 3 hours; compound 0 to 10 μM
Procedure, shortened: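 TR-FRET HTRF KinEASE-STK format with an STK3 biotinylated peptide substrate. Signal tracks phosphorylation; IC50 from curve fitting.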

ASK1, sequence (Q99683 whole entry): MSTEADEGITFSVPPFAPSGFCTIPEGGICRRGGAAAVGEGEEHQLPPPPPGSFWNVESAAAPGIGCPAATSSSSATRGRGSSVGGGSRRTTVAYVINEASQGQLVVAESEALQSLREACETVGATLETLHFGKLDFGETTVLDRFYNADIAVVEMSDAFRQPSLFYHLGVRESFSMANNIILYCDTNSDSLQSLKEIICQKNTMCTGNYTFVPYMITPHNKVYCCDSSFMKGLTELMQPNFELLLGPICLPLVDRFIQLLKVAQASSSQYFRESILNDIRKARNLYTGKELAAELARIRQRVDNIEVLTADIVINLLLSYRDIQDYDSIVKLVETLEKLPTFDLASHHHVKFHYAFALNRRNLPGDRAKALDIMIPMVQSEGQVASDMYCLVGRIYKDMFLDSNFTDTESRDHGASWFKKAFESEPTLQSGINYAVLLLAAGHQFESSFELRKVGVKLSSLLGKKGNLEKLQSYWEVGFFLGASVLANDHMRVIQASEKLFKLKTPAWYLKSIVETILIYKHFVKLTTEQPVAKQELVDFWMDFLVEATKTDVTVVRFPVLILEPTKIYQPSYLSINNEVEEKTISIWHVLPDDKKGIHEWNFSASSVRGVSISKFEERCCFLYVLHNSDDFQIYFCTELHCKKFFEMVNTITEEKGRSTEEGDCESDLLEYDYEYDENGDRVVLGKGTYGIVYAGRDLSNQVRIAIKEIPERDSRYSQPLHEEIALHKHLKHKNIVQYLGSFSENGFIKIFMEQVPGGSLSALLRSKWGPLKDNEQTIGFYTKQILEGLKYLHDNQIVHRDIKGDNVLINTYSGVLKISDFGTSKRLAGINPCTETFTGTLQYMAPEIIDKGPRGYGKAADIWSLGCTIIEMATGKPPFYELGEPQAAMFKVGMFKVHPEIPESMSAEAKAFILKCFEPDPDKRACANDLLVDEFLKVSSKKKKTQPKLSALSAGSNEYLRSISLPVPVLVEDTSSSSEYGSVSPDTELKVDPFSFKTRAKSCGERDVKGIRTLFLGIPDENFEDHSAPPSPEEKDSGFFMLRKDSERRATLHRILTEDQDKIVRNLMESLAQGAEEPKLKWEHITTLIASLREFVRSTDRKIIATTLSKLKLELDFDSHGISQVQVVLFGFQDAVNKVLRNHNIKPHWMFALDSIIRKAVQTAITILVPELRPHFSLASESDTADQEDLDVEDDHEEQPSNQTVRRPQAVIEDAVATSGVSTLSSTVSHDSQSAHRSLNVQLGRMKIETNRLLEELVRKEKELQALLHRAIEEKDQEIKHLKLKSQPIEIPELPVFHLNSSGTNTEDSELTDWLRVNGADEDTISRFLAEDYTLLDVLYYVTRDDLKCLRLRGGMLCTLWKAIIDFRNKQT

| SMILES | IC50 [nM] |
| --- | --- |
| CC(C)N1CCc2cnc(C(=O)Nc3cccc(-c4nnnn4[C@H](C)CO)n3)cc2C1 [Example 135] | 10 to 100 |
| CCN1CCc2cnc(C(=O)Nc3cccc(-c4nnnn4[C@H](C)CO)n3)cc2C1 [Example 136] | 10 to 100 |
| CC(C)n1nnnc1-c1cccc(NC(=O)c2cc3c(cn2)CCN(S(=O)(=O)CC(F)(F)F)C3)n1 [Example 140] | 10 to 100 |
| CC(=O)OC[C@@H](C)n1nnnc1-c1cccc(NC(=O)c2cc3c(cn2)CCN(C(=O)OC(C)(C)C)C3)n1 [Example 147, tert-butyl (R)-7-((6-(1-(1-acetoxypropan-2-yl)-1H-tetrazol-5-yl)pyridin-2-yl)carbamoyl)-3,4-dihydro-2,6-naphthyridine-2(1H)-carboxylate] | 100 to 1000 |
| CC(C)n1nnnc1-c1cccc(NC(=O)c2cc3c(cn2)CCN(C(=O)OC(C)(C)C)C3)n1 [Example 153, tert-butyl 7-((6-(1-isopropyl-1H-tetrazol-5-yl)pyridin-2-yl)carbamoyl)-3,4-dihydro-2,6-naphthyridine-2(1H)-carboxylate] | 10 to 100 |
| CC(C)CS(=O)(=O)N1CCc2cnc(C(=O)Nc3cccc(-c4nnnn4[C@H](C)CO)n3)cc2C1 [Example 161] | 1 to 10 |
| CC(C)OC(=O)N1CCc2cnc(C(=O)Nc3cccc(-c4nnnn4[C@H](C)CO)n3)cc2C1 [Example 162, isopropyl (R)-7-((6-(1-(1-hydroxypropan-2-yl)-1H-tetrazol-5-yl)pyridin-2-yl)carbamoyl)-3,4-dihydro-2,6-naphthyridine-2(1H)-carboxylate] | 1 to 10 |
| C[C@H](CO)n1nnnc1-c1cccc(NC(=O)c2cc3c(cn2)CCN(CC2CC2)C3)n1 [Example 163, (R)-6-(cyclopropylmethyl)-N-(6-(1-(1-hydroxypropan-2-yl)-1H-tetrazol-5-yl)pyridin-2-yl)-5,6,7,8-tetrahydro-2,6-naphthyridine-3-carboxamide] | 1 to 10 |
| CC(C)CN1CCc2cnc(C(=O)Nc3cccc(-c4nnnn4[C@H](C)CO)n3)cc2C1 [Example 164] | 1 to 10 |
| CCCN1CCc2cnc(C(=O)Nc3cccc(-c4nnnn4[C@H](C)CO)n3)cc2C1 [Example 165] | 1 to 10 |
| C[C@H](CO)n1nnnc1-c1cccc(NC(=O)c2cc3c(cn2)CCN(S(=O)(=O)N(C)C)C3)n1 [Example 166] | 1 to 10 |
| CCN(C)C(=O)N1CCc2cnc(C(=O)Nc3cccc(-c4nnnn4[C@H](C)CO)n3)cc2C1 [Example 167] | 1 to 10 |
| C[C@H](CO)n1nnnc1-c1cccc(NC(=O)c2cc3c(cn2)CCN(C(=O)N(C)C)C3)n1 [Example 168] | 1 to 10 |
| C[C@H](CO)n1nnnc1-c1cccc(NC(=O)c2cc3c(cn2)CCN(C(=O)NC2CCCC2)C3)n1 [Example 169] | 1 to 10 |
| CCNC(=O)N1CCc2cnc(C(=O)Nc3cccc(-c4nnnn4[C@H](C)CO)n3)cc2C1 [Example 170] | 1 to 10 |
| C[C@H](CO)n1nnnc1-c1cccc(NC(=O)c2cc3c(cn2)CCN(Cc2ccccn2)C3)n1 [Example 171] | 1 to 10 |
| CC(C)n1nnnc1-c1cccc(NC(=O)c2cc3c(cn2)CCN(S(=O)(=O)CCC(F)(F)F)C3)n1 [Example 172] | 1 to 10 |
| CC(C)n1nnnc1-c1cccc(NC(=O)c2cc3c(cn2)CCN(C(=O)N2CCCC2)C3)n1 [Example 173] | 1 to 10 |
| COc1cc2c(cc1C(=O)Nc1cccc(-c3nnnn3C(C)C)n1)C(=O)N(C(C)C)C2 [Example 174] | 100 to 1000 |
| COc1cc2c(cc1C(=O)Nc1cccc(-c3nncn3C(C)C)n1)C(=O)N(C(C)C)C2 [Example 175, 2-isopropyl-N-(6-(4-isopropyl-4H-1,2,4-triazol-3-yl)pyridin-2-yl)-6-methoxy-3-oxoisoindoline-5-carboxamide] | 10 to 100 |
| CC(C)N1Cc2cc(F)c(C(=O)Nc3cccc(-c4nnnn4C(C)C)n3)cc2C1=O [Example 176] | > 1000 |
| CC(C)N1Cc2cc(F)c(C(=O)Nc3cccc(-c4nncn4C(C)C)n3)cc2C1=O [Example 177, 6-fluoro-2-isopropyl-N-(6-(4-isopropyl-4H-1,2,4-triazol-3-yl)pyridin-2-yl)-3-oxoisoindoline-5-carboxamide] | > 1000 |
| C[C@H](CO)n1nnnc1-c1cccc(NC(=O)c2cc3c(cn2)CN(C(=O)OCc2ccccc2)C3)n1 [Example 178] | 1 to 10 |
| CC(C)n1cnnc1-c1cccc(NC(=O)c2cc3c(cn2)CN(C(=O)OCc2ccccc2)C3)n1 [Example 179, benzyl 6-((6-(4-isopropyl-4H-1,2,4-triazol-3-yl)pyridin-2-yl)carbamoyl)-1,3-dihydro-2H-pyrrolo[3,4-c]pyridine-2-carboxylate] | 10 to 100 |
| CC(C)n1nnnc1-c1cccc(NC(=O)c2cc3c(cn2)CN(C(=O)OCc2ccccc2)C3)n1 [Example 180] | > 1000 |

Second part, the compound after the results:

| IC50 [nM] | SMILES |
| --- | --- |
| 1 to 10 | C[C@H](CO)n1nnnc1-c1cccc(NC(=O)c2cc3c(cn2)CCN(C(=O)C2CCC2)C3)n1 [Example 124] |
| 1 to 10 | CCC(=O)N1CCc2cnc(C(=O)Nc3cccc(-c4nnnn4[C@H](C)CO)n3)cc2C1 [Example 125] |
| < 1 | C[C@H](CO)n1nnnc1-c1cccc(NC(=O)c2cc3c(cn2)CCN(C(=O)OCC(F)(F)F)C3)n1 [Example 126] |
| 1 to 10 | CC(C)COC(=O)N1CCc2cnc(C(=O)Nc3cccc(-c4nnnn4[C@H](C)CO)n3)cc2C1 [Example 127] |
| 1 to 10 | COC(=O)N1CCc2cnc(C(=O)Nc3cccc(-c4nnnn4[C@H](C)CO)n3)cc2C1 [Example 128] |
| 1 to 10 | C[C@H](CO)n1nnnc1-c1cccc(NC(=O)c2cc3c(cn2)CCN(C(=O)NCc2ccccc2)C3)n1 [Example 129] |
| 1 to 10 | COCCNC(=O)N1CCc2cnc(C(=O)Nc3cccc(-c4nnnn4[C@H](C)CO)n3)cc2C1 [Example 130] |
| 1 to 10 | C[C@H](CO)n1nnnc1-c1cccc(NC(=O)c2cc3c(cn2)CCN(C(=O)NC2CC2)C3)n1 [Example 131] |
| 1 to 10 | CC(C)NC(=O)N1CCc2cnc(C(=O)Nc3cccc(-c4nnnn4[C@H](C)CO)n3)cc2C1 [Example 132] |
| 1 to 10 | C[C@H](CO)n1nnnc1-c1cccc(NC(=O)c2cc3c(cn2)CCN(Cc2ccccc2)C3)n1 [Example 133] |
| 1 to 10 | COCCN1CCc2cnc(C(=O)Nc3cccc(-c4nnnn4[C@H](C)CO)n3)cc2C1 [Example 134] |
| 1 to 10 | CC(C)n1nnnc1-c1cccc(NC(=O)c2cc3c(cn2)CCN(C(=O)N2CCS(=O)(=O)CC2)C3)n1 [Example 137] |
| 1 to 10 | COCCS(=O)(=O)N1CCc2cnc(C(=O)Nc3cccc(-c4nnnn4C(C)C)n3)cc2C1 [Example 138] |
| 1 to 10 | CC(C)n1nnnc1-c1cccc(NC(=O)c2cc3c(cn2)CCN(S(=O)(=O)CC2CC(F)(F)C2)C3)n1 [Example 139] |
| 1 to 10 | CC(C)CS(=O)(=O)N1CCc2cnc(C(=O)Nc3cccc(-c4nnnn4C(C)C)n3)cc2C1 [Example 141] |
| 1 to 10 | C[C@H](CO)n1nnnc1-c1cccc(NC(=O)c2cc3c(cn2)CCN(C=O)C3)n1 [Example 142, (R)-6-formyl-N-(6-(1-(1-hydroxypropan-2-yl)-1H-tetrazol-5-yl)pyridin-2-yl)-5,6,7,8-tetrahydro-2,6-naphthyridine-3-carboxamide] |

| IC50 [nM] | SMILES |
| --- | --- |
| 1 to 10 | C[C@H](CO)n1nnnc1-c1cccc(NC(=O)c2cc3c(cn2)CCN(C(=O)OC(C)(C)C)C3)n1 [Example 143, tert-butyl (R)-7-((6-(1-(1-hydroxypropan-2-yl)-1H-tetrazol-5-yl)pyridin-2-yl)carbamoyl)-3,4-dihydro-2,6-naphthyridine-2(1H)-carboxylate] |
| 1 to 10 | C[C@H](CO)n1nnnc1-c1cccc(NC(=O)c2cc3c(cn2)CCN(C(=O)N2CCCC2)C3)n1 [Example 144, (R)—N-(6-(1-(1-hydroxypropan-2-yl)-1H-tetrazol-5-yl)pyridin-2-yl)-6-(pyrrolidine-1-carbonyl)-5,6,7,8-tetrahydro-2,6-naphthyridine-3-carboxamide] |
| 1 to 10 | CCOC(=O)N1CCc2cnc(C(=O)Nc3cccc(-c4nnnn4[C@H](C)CO)n3)cc2C1 [Example 145] |
| 1 to 10 | C[C@H](CO)n1nnnc1-c1cccc(NC(=O)c2cc3c(cn2)CCN(C(=O)C2CCCC2)C3)n1 [Example 146, (R)-6-(cyclopentanecarbonyl)-N-(6-(1-(1-hydroxypropan-2-yl)-1H-tetrazol-5-yl)pyridin-2-yl)-5,6,7,8-tetrahydro-2,6-naphthyridine-3-carboxamide] |
| 1 to 10 | C[C@H](CO)n1nnnc1-c1cccc(NC(=O)c2cc3c(cn2)CCN(S(=O)(=O)C2CC2)C3)n1 [Example 148] |
| 1 to 10 | CC(C)S(=O)(=O)N1CCc2cnc(C(=O)Nc3cccc(-c4nnnn4[C@H](C)CO)n3)cc2C1 [Example 149] |
| 1 to 10 | C[C@H](CO)n1nnnc1-c1cccc(NC(=O)c2cc3c(cn2)CCN(S(=O)(=O)CCC(F)(F)F)C3)n1 [Example 150] |
| 1 to 10 | CC(C)CC(=O)N1CCc2cnc(C(=O)Nc3cccc(-c4nnnn4[C@H](C)CO)n3)cc2C1 [Example 151] |
| 1 to 10 | C[C@H](CO)n1nnnc1-c1cccc(NC(=O)c2cc3c(cn2)CCN(C(=O)C(C)(C)C)C3)n1 [Example 152] |
| 1 to 10 | C[C@H](CO)n1nnnc1-c1cccc(NC(=O)c2cc3c(cn2)CCN(S(=O)(=O)N2CCCC2)C3)n1 [Example 154] |
| 1 to 10 | C[C@H](CO)n1nnnc1-c1cccc(NC(=O)c2cc3c(cn2)CCN(C(=O)C2CC2)C3)n1 [Example 155] |
| 1 to 10 | C[C@H](CO)n1nnnc1-c1cccc(NC(=O)c2cc3c(cn2)CCN(C(=O)OC2CCCC2)C3)n1 [Example 156] |
| 1 to 10 | C[C@H](CO)n1nnnc1-c1cccc(NC(=O)c2cc3c(cn2)CCN(C(=O)OC2CCC2)C3)n1 [Example 157] |
| 1 to 10 | COCCOC(=O)N1CCc2cnc(C(=O)Nc3cccc(-c4nnnn4[C@H](C)CO)n3)cc2C1 [Example 158] |
| 1 to 10 | C[C@H](CO)n1nnnc1-c1cccc(NC(=O)c2cc3c(cn2)CCN(C(=O)OCC(C)(C)C)C3)n1 [Example 159] |
| 1 to 10 | CCCOC(=O)N1CCc2cnc(C(=O)Nc3cccc(-c4nnnn4[C@H](C)CO)n3)cc2C1 [Example 160] |
